For 23 compounds, Ki results are on record in US20250304576A1 (Cancer Research Technology Limited, priority 2022, published 2025).

Each structure is given as a SMILES string.

In one experiment the target is T1, Recombinant IKKα (Homo sapiens, UniProt O15111).
T1 construct: purchased Millipore, Dundee, UK
T1 sequence (O15111 1-745): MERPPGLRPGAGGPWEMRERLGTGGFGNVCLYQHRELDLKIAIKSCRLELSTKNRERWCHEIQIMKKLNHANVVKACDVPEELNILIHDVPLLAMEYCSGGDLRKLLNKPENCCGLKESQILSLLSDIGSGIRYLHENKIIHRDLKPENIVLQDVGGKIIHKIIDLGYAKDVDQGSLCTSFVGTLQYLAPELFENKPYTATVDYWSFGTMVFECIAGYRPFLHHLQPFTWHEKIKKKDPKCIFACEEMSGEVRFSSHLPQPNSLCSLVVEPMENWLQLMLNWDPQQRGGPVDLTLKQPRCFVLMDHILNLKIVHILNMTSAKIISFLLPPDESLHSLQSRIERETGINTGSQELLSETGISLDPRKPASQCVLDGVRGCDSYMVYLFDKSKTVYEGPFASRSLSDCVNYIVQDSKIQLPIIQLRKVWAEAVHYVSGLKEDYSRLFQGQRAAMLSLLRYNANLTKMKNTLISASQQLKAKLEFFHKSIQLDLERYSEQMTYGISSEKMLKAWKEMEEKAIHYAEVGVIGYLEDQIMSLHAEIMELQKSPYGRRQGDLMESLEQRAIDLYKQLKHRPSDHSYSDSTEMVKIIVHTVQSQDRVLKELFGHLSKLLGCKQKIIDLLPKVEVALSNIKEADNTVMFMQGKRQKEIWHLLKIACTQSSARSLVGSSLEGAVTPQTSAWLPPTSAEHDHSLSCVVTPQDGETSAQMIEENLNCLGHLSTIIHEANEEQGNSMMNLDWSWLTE
The experiment is described as follows: DELFIA IKKα kinase assay (apparent Ki, Cheng-Prusoff). The format is biochemical. The following applies: non-italicised figure: DELFIA assay. The protocol: (§1) IKKα and IKKβ inhibitory activity was determined using three different assays: a dissociation enhanced ligand fluorescent immunoassay (DELFIA) based on the protocol of HTScan™ IKKβ Kinase Assay (Cell Signaling Technology, USA); an Adapta IKKα assay (performed by Life Technologies); a Z′-LYTE™ IKKβ assay (performed by Life Technologies).
(§2) Recombinant IKKα or IKKβ, 37 nM, (Millipore, Dundee, UK) was incubated with IηB-α (Ser32) (New England Biolabs, Hitchin, UK) biotinylated peptide substrate (0.375 μM) and 40 μM ATP in assay buffer (40 mM Tris-HCl (pH 7.5), 20 mM MgCl2, EDTA 1 mM, DTT 2 mM and BSA 0.01 mg/ml) in a V-well 96-well plate in the presence and absence of test compound. The assay plate was incubated for 60 minutes at 30° C. after which the kinase reaction was quenched by the addition of 50 mM EDTA, pH8. The resulting mixture was transferred to a streptavidin coated 96-well plate (Perkin Elmer, Beaconsfield, UK) and incubated for 1 hour at 30° C. to immobilise the substrate peptide. After three washes with wash buffer (0.01 M phosphate buffered saline (PBS), 0.05% Tween −20, pH 7.4) a primary antibody against the phosphorylated substrate (phospho-IηB-a) (Ser32/36) (5A5) Mouse mAb (New England Biolabs, Hitchin, UK) (1:1000 dilution with 1% bovine serum albumin (BSA) in wash buffer) was added and incubated at 37° C. for 2 h.
(§3) After a further three washes, a secondary europiated antibody (Eu-N1 labelled anti-mouse IgG, (Perkin Elmer, Beaconsfield, UK) diluted 1:500 in 1% BSA/wash buffer) was added and incubated at 30° C. for 30 minutes. After a further five washes, DELFIA enhancement solution—(Perkin Elmer, Beaconsfield UK) was added and allowed to incubate for 10 min at room temperature, protected from light, to facilitate the chemifluorescent detection. The relative fluorescence units (RFU) signal were measured on a Wallac Victor 1420 multilabel counter (Perkin Elmer, Beaconsfield, UK), in time-resolved fluorescence mode. The counter was set at an excitation wavelength of 340 nm with a 400 μs delay before detecting emitted light at 615 nm. The apparent Ki of the […] was calculated for each compound using the Cheng-Prusoff Equation.
(§4) The IKKα and IKKβ figures quoted in non-italicised form are from the DELFIA assay described above.

For a further experiment, the target named is T2, Recombinant IKKβ (Homo sapiens, UniProt O14920).
T2 construct: purchased Millipore, Dundee, UK
T2 sequence (O14920 1-756): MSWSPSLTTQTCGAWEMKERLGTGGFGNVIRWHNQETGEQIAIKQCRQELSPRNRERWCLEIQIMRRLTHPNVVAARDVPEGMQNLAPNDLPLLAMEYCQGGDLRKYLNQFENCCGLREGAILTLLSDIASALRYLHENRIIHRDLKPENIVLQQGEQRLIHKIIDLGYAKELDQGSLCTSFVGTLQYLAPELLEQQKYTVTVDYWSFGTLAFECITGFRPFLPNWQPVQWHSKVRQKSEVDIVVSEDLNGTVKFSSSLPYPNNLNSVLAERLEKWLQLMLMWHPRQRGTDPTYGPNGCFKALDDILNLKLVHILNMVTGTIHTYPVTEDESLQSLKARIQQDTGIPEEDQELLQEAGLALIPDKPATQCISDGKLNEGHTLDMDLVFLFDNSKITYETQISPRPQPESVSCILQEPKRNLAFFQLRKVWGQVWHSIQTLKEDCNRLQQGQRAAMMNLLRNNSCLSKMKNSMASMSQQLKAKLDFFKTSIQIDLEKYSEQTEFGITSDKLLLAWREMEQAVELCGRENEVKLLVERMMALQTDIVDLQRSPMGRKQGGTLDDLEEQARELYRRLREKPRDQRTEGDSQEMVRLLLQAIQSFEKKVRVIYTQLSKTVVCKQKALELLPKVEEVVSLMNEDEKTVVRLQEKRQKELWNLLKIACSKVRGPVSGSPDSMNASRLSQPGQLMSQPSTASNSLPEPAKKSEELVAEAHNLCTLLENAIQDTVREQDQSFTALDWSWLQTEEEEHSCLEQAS
Put plainly: DELFIA IKKβ kinase assay (apparent Ki, Cheng-Prusoff). The format is biochemical. As to conditions: non-italicised figure: DELFIA assay. The protocol: as §1, §2, §3, §4

Take `Nc1n[nH]c2ccc(-c3ccnc(NC(=O)NC4CCCCC4)c3)cc12` [Example 40, 1-(4-(3-Amino-1H-indazol-5-yl)pyridin-2-yl)-3-cyclohexylurea]: the values for the Ki at Recombinant IKKα and at Recombinant IKKβ were 228 nM and above 10000 nM, respectively.

Take `Nc1n[nH]c2ccc(-c3ccnc(NC(=O)NCCO)c3)cc12` [Example 41, 1-(4-(3-Amino-1H-indazol-5-yl)pyridin-2-yl)-3-(2-hydroxyethyl)urea]: the Ki at Recombinant IKKα came out at 21 nM; on Recombinant IKKβ, 754 nM.

For the compound `Nc1n[nH]c2ccc(-c3ccnc(NC(=O)NCCCO)c3)cc12` [Example 42, 1-(4-(3-Amino-1H-indazol-5-yl)pyridin-2-yl)-3-(3-hydroxypropyl)urea], the figures for the Ki at Recombinant IKKα and at Recombinant IKKβ were 114 nM and 670 nM, respectively.

On to `COCCNC(=O)Nc1cc(-c2ccc3[nH]nc(N)c3c2)ccn1` [Example 43, 1-(4-(3-Amino-1H-indazol-5-yl)pyridin-2-yl)-3-(2-methoxyethyl)urea], for which the values for the Ki on Recombinant IKKα and on Recombinant IKKβ were 76 nM and 1590 nM, respectively.

`CN(CCO)C(=O)Nc1cc(-c2ccc3[nH]nc(N)c3c2)ccn1` [Example 44, 3-(4-(3-Amino-1H-indazol-5-yl)pyridin-2-yl)-1-(2-hydroxyethyl)-1-methylurea]: the Ki on Recombinant IKKα is 418 nM; on Recombinant IKKβ it was above 10000 nM.

Take `Nc1n[nH]c2ccc(-c3ccnc(NC(=O)NCc4ccccc4)c3)cc12` [Example 45, 1-(4-(3-Amino-1H-indazol-5-yl)pyridin-2-yl)-3-benzylurea]: the Ki at Recombinant IKKα amounted to 152 nM; at Recombinant IKKβ, 357 nM.

Regarding `Nc1n[nH]c2ccc(-c3ccnc(NC(=O)NCCc4ccccc4)c3)cc12` [Example 46, 1-(4-(3-Amino-1H-indazol-5-yl)pyridin-2-yl)-3-phenethylurea], the figures for the Ki on Recombinant IKKα and at Recombinant IKKβ were 571 nM and above 10000 nM, respectively.

As to `Nc1n[nH]c2ccc(-c3ccnc(NC(=O)NCc4ccccn4)c3)cc12` [Example 47, 1-(4-(3-Amino-1H-indazol-5-yl)pyridin-2-yl)-3-(pyridin-2-ylmethyl)urea], the Ki on Recombinant IKKα is 38 nM; at Recombinant IKKβ, 838 nM.

For `Nc1n[nH]c2ccc(-c3ccnc(NC(=O)NCc4cccnc4)c3)cc12` [Example 48, 1-(4-(3-Amino-1H-indazol-5-yl)pyridin-2-yl)-3-(pyridin-3-ylmethyl)urea], the Ki is 76 nM on Recombinant IKKα and 840 nM at Recombinant IKKβ.

Regarding `Nc1n[nH]c2ccc(-c3ccnc(NC(=O)NCc4ccncc4)c3)cc12` [Example 49, 1-(4-(3-Amino-1H-indazol-5-yl)pyridin-2-yl)-3-(pyridin-4-ylmethyl)urea], the figures for the Ki on Recombinant IKKα and at Recombinant IKKβ were 304 nM and 1840 nM, respectively.

With `Nc1n[nH]c2ccc(-c3ccnc(NC(=O)Nc4ccccc4)c3)cc12` [Example 50, 1-(4-(3-Amino-1H-indazol-5-yl)pyridin-2-yl)-3-phenylurea], the Ki at Recombinant IKKα is 12 nM; at Recombinant IKKβ, 293 nM.

In the case of `Nc1n[nH]c2ccc(-c3ccnc(NC(=O)Nc4cccc(F)c4)c3)cc12` [Example 51, 1-(4-(3-Amino-1H-indazol-5-yl)pyridine-2-yl)-3-(3-fluorophenyl)urea], the Ki on Recombinant IKKα was 14 nM; on Recombinant IKKβ it was 126 nM.

For the compound `Nc1n[nH]c2ccc(-c3ccnc(NC(=O)Nc4cccc(Cl)c4)c3)cc12` [Example 52, 1-(4-(3-Amino-1H-indazol-5-yl)pyridin-2-yl)-3-(3-chlorophenyl)urea], the Ki turned out to be 36 nM at Recombinant IKKα and 400 nM on Recombinant IKKβ.

For `CC(C)c1cccc(NC(=O)Nc2cc(-c3ccc4[nH]nc(N)c4c3)ccn2)c1` [Example 53], the results for the Ki on Recombinant IKKα and at Recombinant IKKβ were 14 nM and 419 nM, respectively.

In the case of `Nc1n[nH]c2ccc(-c3ccnc(NC(=O)Nc4cccc(CO)c4)c3)cc12` [Example 54, 1-(4-(3-Amino-1H-indazol-5-yl)pyridin-2-yl)-3-(3-(hydroxymethyl)phenyl)urea], the figures for the Ki at Recombinant IKKα and on Recombinant IKKβ were 14 nM and 419 nM, respectively.

For the compound `NC(=O)c1cccc(NC(=O)Nc2cc(-c3ccc4[nH]nc(N)c4c3)ccn2)c1` [Example 55, 3-(3-(4-(3-Amino-1H-indazol-5-yl)pyridin-2-yl)ureido)benzamide], the Ki on Recombinant IKKα amounted to 21 nM; on Recombinant IKKβ, 503 nM.

In the case of `Nc1n[nH]c2ccc(-c3ccnc(NC(=O)Nc4cccc(Oc5ccccc5)c4)c3)cc12` [Example 56, 1-(4-(3-Amino-1H-indazol-5-yl)pyridin-2-yl)-3-(3-phenoxyphenyl)urea], the Ki at Recombinant IKKα turned out to be 237 nM; at Recombinant IKKβ, 3500 nM.

As for `Nc1n[nH]c2ccc(-c3ccnc(NC(=O)Nc4cccc(OCc5ccccc5)c4)c3)cc12` [Example 57, 1-(4-(3-Amino-1H-indazol-5yl)pyridin-2-yl)-3-(3-(benzyloxy)phenyl)urea], the Ki on Recombinant IKKα was 38 nM; on Recombinant IKKβ it was 4200 nM.

Consider `Nc1n[nH]c2ccc(-c3ccnc(NC(=O)Nc4cccc(OCc5ccc(F)cc5)c4)c3)cc12` [Example 58, 1-(4-(3-Amino-1H-indazol-5-yl)pyridin2-yl)-3-(3-((4-fluorobenzyl)oxy)phenyl)urea], for which the results for the Ki on Recombinant IKKα and on Recombinant IKKβ were 80 nM and 1970 nM, respectively.

On to `Nc1n[nH]c2ccc(-c3ccnc(NC(=O)Nc4cccc(OCc5cccc(F)c5)c4)c3)cc12` [Example 59, 1-(4-(3-Amino-1H-indazol-5-yl)pyridin-2-yl)-3-(3-((3-fIuorobenzyl)oxy)phenyl)urea], for which the values for the Ki at Recombinant IKKα and at Recombinant IKKβ were 93 nM and 1780 nM, respectively.

Regarding `Nc1n[nH]c2ccc(-c3ccnc(NC(=O)Nc4cccc(OCc5ccccc5F)c4)c3)cc12` [Example 60, 1-(4-(3-Amino-1H-indazol-5-yl)pyridin-2-yl)-3-(3-((2-fluorobenzyl)oxy)phenyl)urea], the Ki was 76 nM at Recombinant IKKα and 2480 nM on Recombinant IKKβ.

Take `Nc1n[nH]c2ccc(-c3ccnc(NC(=O)Nc4cccc(C(=O)Nc5ccccc5)c4)c3)cc12` [Example 61, 3-(3-(4-(3-Amino-1H-indazol-5-yl)pyridine-2-yl)ureido)-N-phenylbenzamide]: the Ki worked out at 171 nM at Recombinant IKKα and 419 nM at Recombinant IKKβ.

As to `Nc1n[nH]c2ccc(-c3ccnc(NC(=O)Nc4ccc(F)cc4)c3)cc12` [Example 62, 1-(4-(3-Amino-1H-indazol-5-yl)pyridine-2-yl)-3-(4-fluorophenyl)urea], the results for the Ki at Recombinant IKKα and on Recombinant IKKβ were 22 nM and 115 nM, respectively.
